Data: patent US8778871B2 (Takeda Pharmaceutical Company Limited, priority 2004, dated 2014)
Non-standard residues stand in square brackets, D forms with d. Residues, ends and D or L forms follow the SMILES beside them. NMeW = CN[C@@H](Cc1c[nH]c2ccccc12)C(=O)O; Arg(Me) = CNC(=N)NCCC[C@H](N)C(=O)O; Nva = CCC[C@H](N)C(=O)O; azaGly = NNC(=O)O

Assays:
hOT7T175 [1] = target: T1, hOT7T175 (Homo sapiens, UniProt Q969F8, L364H); assay type: cell-based; conditions: hOT7T175/CHO, FLIPR, evaluation for 40 seconds after initiation of the reaction
T1 construct: expressed in transfected cells
Description: The intracellular Ca ion level-increasing activity was measured using FLIPR as in TEST EXAMPLE 2.

[2] = Action of reducing testosterone level in blood in mature male rat (1 mM peptide in 50% DMSO, ALZET osmotic pump); assay type: in vivo; conditions: 1 mM peptide in 50% DMSO aqueous solution, ALZET osmotic pump s.c., six days
Description: The peptide was encapsulated in five ALZET osmotic pump (Model 2001, 0.2 ml of volume, releasing rate 0.001 ml/hr, DURECT Corporation). The ALZET pumps encapsulated with the peptide solution were implanted to dorsal subcutaneous of five male CD (SD) IGS rat at nine weeks age (Charles River Japan, Inc.) anesthesized with ether for one pump to one rat. Separately, for negative controls, the ALZET osmotic pumps encapsulated with distilled water were implanted to five male CD (SD) IGS rat (Charles River Japan, Inc.) The rats were bred for six days under the normal conditions. After weighing, blood was collected by decapitation. To 1 ml of blood, 0.03 ml of aprotinin (Trasylol, Byer) solution containing 0.1 g/ml EDTA 2Na was added. The plasma was isolated by centrifugation at 1,800×g for 25 minutes and collected. The thus obtained plasma, 0.05 ml was effected by radioimmunoassay. (DPC Total Testosterone Kit, Diagnostic Products Corporation) to measure testosterone level in blood of each rat. The value beneath measuring limit of radioimmunoassay (0.04 ng/ml as concentration of plasma) was treated as zero. The mean values for testosterone level of five rats, to which the peptide was given, was calculated and the relative value (percentage) for the mean values of testosterone level of five rats, to which distilled watrer was given, was estimated.

hOT7T175 [3] = target: T1, hOT7T175; experiment: Intracellular Ca ion level-increasing activity using FLIPR (180 seconds; specific activity to Metastin (1-54)); assay type: cell-based; conditions: hOT7T175/CHO, relative to Metastin (1-54) = 1

T1 sequence (Q969F8 whole entry L364H): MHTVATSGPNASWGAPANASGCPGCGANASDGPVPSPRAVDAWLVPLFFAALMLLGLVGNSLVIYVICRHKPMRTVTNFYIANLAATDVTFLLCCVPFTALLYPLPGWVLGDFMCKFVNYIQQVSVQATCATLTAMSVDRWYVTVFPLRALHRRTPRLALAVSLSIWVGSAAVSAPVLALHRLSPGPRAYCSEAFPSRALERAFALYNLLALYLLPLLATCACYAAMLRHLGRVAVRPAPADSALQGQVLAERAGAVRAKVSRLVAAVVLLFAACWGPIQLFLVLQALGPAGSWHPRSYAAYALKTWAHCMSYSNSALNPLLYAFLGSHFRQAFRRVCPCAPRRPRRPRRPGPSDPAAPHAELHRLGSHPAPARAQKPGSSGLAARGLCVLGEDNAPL

Compound | Specific Act. (EC50/MS10 EC50) (hOT7T175 [1]) | Testosterone level in Blood [2] [%] | Specific Act. (intracellular Ca ion level-increasing activity, specific activity to Metastin (1-54)) (hOT7T175 [3])
3-Pyridinepropionyl-D-Trp-Asn-Thr-Phe-AzaGly-Leu-Arg(Me)-Trp-NH2 ({3‑Pyridinepropionyl}-[dW]NTF[azaGly]L[Arg(Me)]W-NH2) [Compound No. 670] | 0.9 | 2 | –
6-Aminocaproyl-D-Trp-Asn-Thr-Phe-AzaGly-Leu-Arg(Me)-Trp-NH2 ({6‑Aminocaproyl}-[dW]NTF[azaGly]L[Arg(Me)]W-NH2) [Compound No. 674] | 2 | 2 | –
CNC(=N)NCCC[C@H](NC(=O)[C@H](CC(C)C)NC(=O)CNC(=O)[C@H](Cc1ccccc1)NC(=O)[C@H](C)NC(=O)[C@H](CC(N)=O)NC(=O)[C@H](Cc1c[nH]c2ccccc12)NC(=O)[C@H](CC(N)=O)NC(=O)[C@H](N)Cc1ccc(O)cc1)C(=O)N[C@@H](Cc1ccccc1)C(N)=O [Compound No. 212] (H-[dY]NWNAFGL[Arg(Me)]F-NH2) | 1.1 | – | 10
CNC(=N)NCCC[C@H](NC(=O)[C@H](CC(C)C)NC(=O)CNC(=O)[C@H](Cc1ccccc1)NC(=O)[C@H](CO)NC(=O)[C@H](CC(N)=O)NC(=O)[C@H](Cc1c[nH]c2ccccc12)NC(=O)[C@H](N)Cc1ccc(O)cc1)C(=O)N[C@@H](Cc1ccccc1)C(N)=O [Compound No. 217] (H-[dY]WNSFGL[Arg(Me)]F-NH2) | 3.1 | – | 20
CNC(=N)NCCC[C@H](NC(=O)[C@H](CC(C)C)NC(=O)NNC(=O)[C@H](Cc1ccccc1)NC(=O)[C@H](CO)NC(=O)[C@H](CC(N)=O)NC(=O)[C@H](Cc1c[nH]c2ccccc12)NC(=O)[C@H](N)Cc1ccc(O)cc1)C(=O)N[C@@H](Cc1ccccc1)C(N)=O [Compound No. 222, D-Tyr-Trp-Asn-Ser-Phe-AzaGly-Leu-Arg(Me)-Phe-NH2] (H-[dY]WNSF[azaGly]L[Arg(Me)]F-NH2) | 2.7 | – | 10
CNC(=N)NCCC[C@H](NC(=O)[C@H](CC(C)C)NC(=O)NNC(=O)[C@H](Cc1ccccc1)NC(=O)[C@H](CO)NC(=O)[C@H](CC(N)=O)NC(=O)[C@H](Cc1c[nH]c2ccccc12)NC(=O)[C@H](CC(N)=O)NC(=O)[C@H](N)Cc1ccc(O)cc1)C(=O)N[C@@H](Cc1ccccc1)C(N)=O [Compound No. 232, D-Tyr-Asn-Trp-Asn-Ser-Phe-AzaGly-Leu-Arg(Me)-Phe-NH2] | 3.9 | – | 3
CNC(=N)NCCC[C@H](NC(=O)[C@H](CC(C)C)NC(=O)NNC(=O)[C@H](Cc1ccccc1)NC(=O)[C@H](CO)NC(=O)[C@H](CC(N)=O)NC(=O)[C@@H](NC(=O)[C@H](N)Cc1ccc(O)cc1)[C@@H](C)O)C(=O)N[C@@H](Cc1ccccc1)C(N)=O [Compound No. 241, D-Tyr-Thr-Asn-Ser-Phe-AzaGly-Leu-Arg(Me)-Phe-NH2] (H-[dY]TNSF[azaGly]L[Arg(Me)]F-NH2) | 5.3 | – | 1
CNC(=N)NCCC[C@H](NC(=O)[C@H](CC(C)C)NC(=O)NNC(=O)[C@H](Cc1ccccc1)NC(=O)[C@H](CO)NC(=O)[C@H](CC(N)=O)NC(=O)[C@@H](Cc1c[nH]c2ccccc12)NC(=O)[C@H](N)Cc1ccc(O)cc1)C(=O)N[C@@H](Cc1ccccc1)C(N)=O [Compound No. 242, D-Tyr-D-Trp-Asn-Ser-Phe-AzaGly-Leu-Arg(Me)-Phe-NH2] (H-[dY][dW]NSF[azaGly]L[Arg(Me)]F-NH2) | 1.4 | – | 2
Ac-D-Trp-Asn-Thr-Phe-AzaGly-Leu-Arg(Me)-Trp-NH2 (Ac-[dW]NTF[azaGly]L[Arg(Me)]W-NH2; SMILES CNC(=N)NCCC[C@H](NC(=O)[C@H](CC(C)C)NC(=O)NNC(=O)[C@H](Cc1ccccc1)NC(=O)[C@@H](NC(=O)[C@H](CC(N)=O)NC(=O)[C@@H](Cc1c[nH]c2ccccc12)NC(C)=O)[C@@H](C)O)C(=O)N[C@@H](Cc1c[nH]c2ccccc12)C(N)=O) [Compound No. 666] | 1.1 | 2 | –
Ac-D-Trp-D-Trp-Asn-Thr-Phe-AzaGly-Leu-Arg(Me)-Trp-NH2 (Ac-[dW][dW]NTF[azaGly]L[Arg(Me)]W-NH2; SMILES CNC(=N)NCCC[C@H](NC(=O)[C@H](CC(C)C)NC(=O)NNC(=O)[C@H](Cc1ccccc1)NC(=O)[C@@H](NC(=O)[C@H](CC(N)=O)NC(=O)[C@@H](Cc1c[nH]c2ccccc12)NC(=O)[C@@H](Cc1c[nH]c2ccccc12)NC(C)=O)[C@@H](C)O)C(=O)N[C@@H](Cc1c[nH]c2ccccc12)C(N)=O) [Compound No. 663] | 0.8 | 2 | –
Ac-D-Tyr-D-Pya(2)-Asn-Thr-Phe-AzaGly-Leu-Arg(Me)-Trp-NH2 [Compound No. 658] | 0.4 | 2 | –
Ac-D-Tyr-D-Pya(3)-Asn-Thr-Phe-AzaGly-Leu-Arg(Me)-Trp-NH2 [Compound No. 660] | 1.1 | 2 | –
Ac-D-Tyr-D-Pya(4)-Asn-Thr-Phe(4F)-AzaGly-Leu-Arg(Me)-Trp-NH2 [Compound No. 638] | 1.7 | 2 | –
Ac-D-Tyr-D-Trp-Asn-Thr-Phe-AzaGly-Leu-Arg(Me2)sym-Trp-NH2 [Compound No. 608] | 2.2 | 2 | –
Ac-D-Tyr-D-Trp-Asn-Thr-Phe-AzaGly-Nva-Arg(Me)-Trp-NH2 (Ac-[dY][dW]NTF[azaGly][Nva][Arg(Me)]W-NH2; SMILES CCC[C@H](NC(=O)NNC(=O)[C@H](Cc1ccccc1)NC(=O)[C@@H](NC(=O)[C@H](CC(N)=O)NC(=O)[C@@H](Cc1c[nH]c2ccccc12)NC(=O)[C@@H](Cc1ccc(O)cc1)NC(C)=O)[C@@H](C)O)C(=O)N[C@@H](CCCNC(=N)NC)C(=O)N[C@@H](Cc1c[nH]c2ccccc12)C(N)=O) [Compound No. 677] | 0.3 | 2 | –
Ac-D-Tyr-D-Trp-Asn-Thr-Pya(4)-AzaGly-Leu-Arg(Me)-Trp-NH2 [Compound No. 635] | 1.4 | 2 | –
Ac-D-Tyr-D-Tyr-D-Trp-Asn-Thr-Phe-AzaGly-Leu-Arg(Me)-Trp-NH2 (Ac-[dY][dY][dW]NTF[azaGly]L[Arg(Me)]W-NH2; SMILES CNC(=N)NCCC[C@H](NC(=O)[C@H](CC(C)C)NC(=O)NNC(=O)[C@H](Cc1ccccc1)NC(=O)[C@@H](NC(=O)[C@H](CC(N)=O)NC(=O)[C@@H](Cc1c[nH]c2ccccc12)NC(=O)[C@@H](Cc1ccc(O)cc1)NC(=O)[C@@H](Cc1ccc(O)cc1)NC(C)=O)[C@@H](C)O)C(=O)N[C@@H](Cc1c[nH]c2ccccc12)C(N)=O) [Compound No. 651] | 0.7 | 2 | –
Ac-D-Tyr-NMeTrp-Asn-Thr-Phe-AzaGly-Leu-Arg(Me)-Trp-NH2 (Ac-[dY][NMeW]NTF[azaGly]L[Arg(Me)]W-NH2; SMILES CNC(=N)NCCC[C@H](NC(=O)[C@H](CC(C)C)NC(=O)NNC(=O)[C@H](Cc1ccccc1)NC(=O)[C@@H](NC(=O)[C@H](CC(N)=O)NC(=O)[C@H](Cc1c[nH]c2ccccc12)N(C)C(=O)[C@@H](Cc1ccc(O)cc1)NC(C)=O)[C@@H](C)O)C(=O)N[C@@H](Cc1c[nH]c2ccccc12)C(N)=O) [Compound No. 672] | 2.1 | 2 | –
Ac-D-Tyr-Pro-Asn-Thr-Phe-AzaGly-Leu-Arg(Me)-Trp-NH2 (Ac-[dY]PNTF[azaGly]L[Arg(Me)]W-NH2; SMILES CNC(=N)NCCC[C@H](NC(=O)[C@H](CC(C)C)NC(=O)NNC(=O)[C@H](Cc1ccccc1)NC(=O)[C@@H](NC(=O)[C@H](CC(N)=O)NC(=O)[C@@H]1CCCN1C(=O)[C@@H](Cc1ccc(O)cc1)NC(C)=O)[C@@H](C)O)C(=O)N[C@@H](Cc1c[nH]c2ccccc12)C(N)=O) [Compound No. 657] | 1.1 | 2 | –
Ac-G[dY][dW]NTF[azaGly]L[Arg(Me)]W-NH2 [Compound No. 649] | 1 | 2 | –
Ac-Tyr-D-Tyr-D-Trp-Asn-Thr-Phe-AzaGly-Leu-Arg(Me)-Trp-NH2 (Ac-Y[dY][dW]NTF[azaGly]L[Arg(Me)]W-NH2; SMILES CNC(=N)NCCC[C@H](NC(=O)[C@H](CC(C)C)NC(=O)NNC(=O)[C@H](Cc1ccccc1)NC(=O)[C@@H](NC(=O)[C@H](CC(N)=O)NC(=O)[C@@H](Cc1c[nH]c2ccccc12)NC(=O)[C@@H](Cc1ccc(O)cc1)NC(=O)[C@H](Cc1ccc(O)cc1)NC(C)=O)[C@@H](C)O)C(=O)N[C@@H](Cc1c[nH]c2ccccc12)C(N)=O) [Compound No. 676] | 1.4 | 2 | –
H-YNWNSFGLRY-NH2 [Compound No. 109] | 2.6 | – | 20
